Laboratory results taken from patent EP4670717A1, “PYRROLIDINE-FUSED MYRTANOL DERIVATIVES AS INHIBITORS AND/OR DEGRADERS OF IDO1 UND USE THEREOF” (Max-Planck-Gesellschaft zur Förderung der Wissenschaften …, priority 2024, dated 2025).
Where two headings read alike, the source gives them in different places.

Tests used:
IDO1 [1] = target: T1, IDO1 (Homo sapiens, UniProt P14902); assay: IDO1 degradation in BxPC3 cells, IDO1 protein levels by immunoblotting; type: cell-based; details: for Dmax at 0.1 µM: BXPC-3, BxPC3 cells; for Dmax at 0.1 µM / Dmax [%] (n): 50 ng/ml IFN-γ 24 h, washout, compound (100 nM) 24 h, maximum IDO1 degradation at 0.1 µM;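 on all read-outs here: IDO1 bands on Western blots detected with fluorescent dye-labelled secondary antibodies and quantified by band intensity, values are means of n biological replicates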
T1 construct: BxPC3 cells were seeded in phenol red-free RPMI 1640 medium; endogenous in cells; host or cells: BxPC3 cells stimulated with IFN-γ (50 ng/mL)
Protocol: To analyze IDO1 levels, IFN-γ-stimulated BxPC3 cells (50 ng/mL IFN-γ), U2OS cells (5 ng/mL IFN-γ), HEK^rhIDO1 (HEK293T cells electroporated with rhIDO1), SKOV3 and BT549 cells were treated with compounds for the indicated times (6 h to 24 h) followed by cell lysis (150 mM sodium chloride in 50 mM Tris (pH 8.0) and 1% NP-40 Alternative, protease and phosphatase inhibitors). Protein concentrations were determined (DC protein assay, Bio-Rad) followed by addition of 1 × SDS loading buffer and protein separation by a 10% SDS-PAGE. Separated protein samples were transferred to a polyvinylidene difluoride (PVDF) membrane using a wet-tank blotting system (Bio-Rad). IDO1 as well as vinculin as a loading were detected using the primary antibodies anti-IDO1 (ab211017, abcam or 14-9750-80, Thermo Fisher), anti-vinculin (V9131, Thermo Fisher) and anti-β-actin (ab8227, abcam) in 5 % milk in PBS-buffered saline with 0.05 % (v/v) Tween-20 (PBS-T). Primary antibodies were incubated at 4°C overnight and detected with IRDye-conjugated secondary antibodies (LI-COR Biosciences). IDO1 protein level in BT549 and SKOV3 cells was detected with HRP conjugated secondary antibody and SuperSignal™ West Dura Extended Duration Substrat (Thermo Fisher Scientific). Washing steps were performed with PBS-T. Protein bands were visualized by ChemiDoc™ MP (Bio-Rad) using a fluorescent readout. Band intensities were quantified using Image Lab software.
In order to differentiate between these different activities, we explored the modes of action of selected compounds in an in vitro assay employing recombinant human IDO1 (rhIDO1) monitoring enzymatic activity only, and we characterized the degradation efficiency by means of Western blotting, determining maximum degradation levels at 0.1µM (Dmax) and half maximum degradation concentration (DC50) (Table B-2). […] Data are mean values of n biological replicates. Dmax corresponds to maximum levels of IDO1 degradation at 0.1 µM.

[2] = target: T2, recombinant human IDO1 (rhIDO1) (Homo sapiens, UniProt P14902); assay: IDO1 enzymatic assay with recombinant protein, Kyn detection with p-DMAB; type: biochemical; details: pre-incubated with compounds at 37°C for 40 min; for inhibition at 59 µM: in vitro inhibition at 59 uM; for IC50: determined if inhibition at 59 µM was higher than 50%, read-out: rhIDO1 enzymatic activity IC50 ± SD
T2 construct: Full-length rhIDO protein (1 µM) in 50 mM potassium phosphate buffer; GST (cleaved yes); made in house; host or cells: E. coli
Excerpt: Reduction of the kynurenine level in the cell-based model employed for initial SAR exploration can be due to inhibition of enzymatic activity, degradation of IDO1, or both (Table B-2). In order to differentiate between these different activities, we explored the modes of action of selected compounds in an in vitro assay employing recombinant human IDO1 (rhIDO1) monitoring enzymatic activity only, and we characterized the degradation efficiency by means of Western blotting, determining maximum degradation levels at 0.1µM (Dmax) and half maximum degradation concentration (DC50) (Table B-2). Table B-2 in vitro inhibition and degradation of IDO1 by selected compounds. […] Data are mean values ± SD (n = 4, except for compounds 1, 11, and 19 (n=2)). […] Data are mean values of n biological replicates. Dmax corresponds to maximum levels of IDO1 degradation at 0.1 µM.
Full-length rhIDO protein (1 µM) in 50 mM potassium phosphate buffer (50 mM KH2PO4 and 50 mM K2HPO4, pH 6.5) was incubated with the respective compounds for 40 min at 37 °C prior to the addition of 10 mM ascorbic acid, 10 µM methylene blue, 2 mM Trp and 100 µg/mL catalase (Sigma-Aldrich, C100). Samples were incubated for 60 min followed by the addition of trichloroacetic acid to a final concentration of 7 % and further incubation for 30 min at 37 °C. Kyn levels were detected by the addition of an equal volume of 2 % (w/v) p-DMAB in acetic acid and absorbance was measured at 492 nm and 650 nm as a background control. Values are presented relative to the DMSO control. Dose-response curves and IC50 values were generated and fitted with GraphPad Prism 6.0 (GraphPad software, USA) using four-parameter variable slope non-linear regression curve fit.

apo-IDO1 = target: T3, apo-IDO1 (Homo sapiens, UniProt P14902); assay: Pulse-chase ubiquitination assay of apo-IDO1 by CRL2^KLHDC3; type: biochemical; details: apo-IDO1 incubated with compounds (30 µM) for 90 min at 37°C; Fig. 3j
T3 construct: For the ubiquitination assays, IDO1 (residues 5-C) was cloned into a pRSF Duet based vector; His-TEV (N); made in house; host or cells: IDO1: host not restated ('purified as described above', which points to E. coli); KLHDC3-EloB/C: Hi5 insect cells

IDO1 [3] = target: T1, IDO1; assay: Kyn assay in BxPC-3 cells (Kyn levels after IFN-γ and Trp); type: cell-based;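 further: kyn levels expressed relative to DMSO-treated control cells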
[4] = BxPC-3 cells incubated with IFN-γ, Trp and the compounds for 48 h, read-out: Kyn assay IC50 ± SD

T1 sequence (P14902 whole entry): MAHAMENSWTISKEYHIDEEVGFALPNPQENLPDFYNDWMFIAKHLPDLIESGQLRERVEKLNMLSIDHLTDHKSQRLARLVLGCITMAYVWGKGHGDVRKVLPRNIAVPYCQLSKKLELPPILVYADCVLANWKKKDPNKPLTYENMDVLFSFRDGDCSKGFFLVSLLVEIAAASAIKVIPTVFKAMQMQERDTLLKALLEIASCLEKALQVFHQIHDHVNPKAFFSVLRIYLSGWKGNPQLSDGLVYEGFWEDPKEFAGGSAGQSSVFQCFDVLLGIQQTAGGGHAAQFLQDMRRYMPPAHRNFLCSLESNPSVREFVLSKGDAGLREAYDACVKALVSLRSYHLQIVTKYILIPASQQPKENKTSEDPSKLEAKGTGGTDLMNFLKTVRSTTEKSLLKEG
T2 sequence (P14902 whole entry): as above
T3 sequence (P14902 5-403 limits assumed): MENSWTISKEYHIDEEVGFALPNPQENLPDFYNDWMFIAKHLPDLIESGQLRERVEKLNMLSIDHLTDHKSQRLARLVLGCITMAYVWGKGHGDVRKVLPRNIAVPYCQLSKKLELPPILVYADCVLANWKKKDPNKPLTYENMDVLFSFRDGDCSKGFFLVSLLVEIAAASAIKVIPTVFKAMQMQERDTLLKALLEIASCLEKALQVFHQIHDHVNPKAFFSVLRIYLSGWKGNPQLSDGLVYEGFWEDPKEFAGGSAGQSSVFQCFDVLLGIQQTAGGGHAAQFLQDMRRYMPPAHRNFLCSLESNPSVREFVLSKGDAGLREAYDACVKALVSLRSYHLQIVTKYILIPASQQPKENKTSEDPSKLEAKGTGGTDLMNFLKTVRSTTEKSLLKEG

| SMILES | Dmax at 0.1 µM (IDO1 [1]) [%] | inhibition at 59 µM [2] [%] | IDO1 ubiquitination by CRL2^KLHDC3 (apo-IDO1) | Dmax [%] (n) (IDO1 [1]; BxPC3 cells) | IC50 [2] [nM] | IC50 (IDO1 [3]; [4]) [nM] | activity in the cell-based kynurenine assay (IDO1 [3]; result in words) | DC50 ± SD [nM] (IDO1 [1]; half-maximal degradation concentration, BxPC3 cells, immunoblotting) | IC50 (IDO1 [3]; read-out: IC50 value in the Kyn assay, Kyn assay) [nM] | IC50 (IDO1 [3]; read-out: Kyn assay IC50 ± SD, BxPC-3 cells incubated with IFN-γ, Trp and the compounds for 48 h) [nM] |
| --- | --- | --- | --- | --- | --- | --- | --- | --- | --- | --- |
| C#Cc1ccc(NC(=O)OC[C@]23CN(S(=O)(=O)c4ccc(C(C)(C)C)cc4C)C[C@H]2C[C@H]2C[C@@H]3C2(C)C)cc1 [compound 71, ((3aS,4R,6R,7aS)-2-((4-(tert-butyl)-2-methylphenyl)sulfonyl)-5,5-dimethylocta-hydro-3aH-4,6-methanoisoindol-3a-yl)methyl (4-ethynylphenyl)carbamate] | 74 ± 13 | 30 ± 5 | ubiquitinated |  |  |  |  |  |  |  |
| CC(C)(C(=O)O)c1ccc(S(=O)(=O)N2C[C@H]3C[C@H]4C[C@H](C4(C)C)[C@@]3(COC(=O)Nc3ccc(I)cc3)C2)cc1 [compound 65, 2-(4-(((3aS,4R,6R,7aS)-3a-((((4-iodophenyl)carbamoyl)oxy)methyl)-5,5-dimethyloctahydro-2H-4,6-methanoisoindol-2-yl)sulfonyl)phenyl)-2-methylpropanoic acid] | 36 to 46 | 72 ± 4 |  | 46 ± 21 (5) % | 820 ± 140 | < 200 | low nanomolar range |  |  |  |
| C#Cc1ccc(NC(=O)OC[C@]23CN(S(=O)(=O)c4ccc(C(C)(C)C)cc4CC)C[C@H]2C[C@H]2C[C@@H]3C2(C)C)cc1 [compound 72, ((3aS,4R,6R,7aS)-2-((4-(tert-butyl)-2-ethylphenyl)sulfonyl)-5,5-dimethylocta-hydro-3aH-4,6-methanoisoindol-3a-yl)methyl(4-ethynylphenyl) carbamate] |  | 62 ± 5 |  | 75% |  |  |  | low nanomolar range | 11 | < 200 |
| CC(C)(C)c1ccc(S(=O)(=O)N2C[C@H]3C[C@H]4C[C@H](C4(C)C)[C@@]3(COC(=O)Nc3ccc(I)cc3)C2)c(C2CC2)c1 [compound 54, ((3aS,4R,6R,7aS)-2-((4-(tert-butyl)-2-cyclopropylphenyl)sulfonyl)-5,5-dimethyl-octahydro-3aH-4,6-methanoisoindol-3a-yl)methyl (4-iodophenyl)carbamate] | 55 to 59 | 35 ± 2 |  | 55 ± 4 (3) % |  | < 200 |  |  |  |  |
| Cc1cc(C(C)(C)C(=O)O)ccc1S(=O)(=O)N1C[C@H]2C[C@H]3C[C@H](C3(C)C)[C@@]2(COC(=O)Nc2ccc(I)cc2)C1 [compound 70, 2-(4-(((3aS,4R,6R,7aS)-3a-((((4-iodophenyl)carbamoyl)oxy)methyl)-5,5-dimethyloctahydro-2H-4,6-methanoisoindol-2-yl)sulfonyl)-3-methylphenyl)-2-methylpropanoic acid] | 18 ± 19 | 62 ± 1 |  |  | 110 ± 20 | < 200 |  |  |  |  |
